This experiment deals with T1, full-length SARM1 (FL-SARM1) (Homo sapiens, UniProt Q6SZW1).
T1 sequence (Q6SZW1 28-724): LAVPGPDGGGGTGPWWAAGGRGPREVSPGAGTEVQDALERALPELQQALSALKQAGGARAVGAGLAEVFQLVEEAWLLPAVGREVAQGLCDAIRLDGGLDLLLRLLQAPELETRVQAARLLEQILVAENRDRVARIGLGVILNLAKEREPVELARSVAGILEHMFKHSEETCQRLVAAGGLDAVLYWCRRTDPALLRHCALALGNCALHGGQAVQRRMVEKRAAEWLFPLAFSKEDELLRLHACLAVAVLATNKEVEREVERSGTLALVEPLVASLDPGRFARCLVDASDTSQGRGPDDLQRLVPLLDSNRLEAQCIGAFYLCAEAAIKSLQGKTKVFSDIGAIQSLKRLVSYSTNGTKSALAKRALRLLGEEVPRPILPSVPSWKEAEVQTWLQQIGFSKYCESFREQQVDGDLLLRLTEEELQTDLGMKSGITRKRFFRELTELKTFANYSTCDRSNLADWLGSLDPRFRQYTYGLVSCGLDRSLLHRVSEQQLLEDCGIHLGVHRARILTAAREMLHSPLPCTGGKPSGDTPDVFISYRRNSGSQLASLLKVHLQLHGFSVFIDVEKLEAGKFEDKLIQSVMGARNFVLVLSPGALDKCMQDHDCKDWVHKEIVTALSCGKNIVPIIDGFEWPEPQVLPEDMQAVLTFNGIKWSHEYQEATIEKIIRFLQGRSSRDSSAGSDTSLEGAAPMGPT
Briefly: FL-SARM1 cellular lysate assay (NAD/NADH-Glo detection of remaining NAD+, NMN-activated).

[1] abbreviates: Activity (IC50 class), 11 point curve.
The mark [2] stands for this setting: Activity (μM) (IC50), 11 point curve.
The mark [3] stands for this setting: read-out: Activity (IC50 class), 11 point curve.

Read-outs that look alike come from different tables or passages of the source.

Consider `Cc1ccc(NC(=O)[C@H]2C[C@@H](C(F)(F)F)CN2c2ncn(C)n2)cc1-c1ncc(F)cn1` [Example 175, (2R,4R)—N-(3-(5-fluoropyrimidin-2-yl)-4-methylphenyl)-1-(1-methyl-1H-1,2,4-triazol-3-yl)-4-(trifluoromethyl)pyrrolidine-2-carboxamide], for which the IC50 under setting [1] lay within 1 to 10 µM and the IC50 under setting [2] is 2.4 µM.
For `CO[C@@H]1C[C@H](C(=O)Nc2ccc(C)c(-c3ncc(F)cn3)c2)N(c2ncccn2)C1` [Example 324], in that order: over 10 µM and 17 µM.
For `CC(C)c1ccc(NC(=O)[C@@H]2CC2(F)F)cc1-c1ccccn1` [Example 151, (1S)-2,2-difluoro-N-(4-propan-2-yl-3-pyridin-2-ylphenyl)cyclopropane-1-carboxamide], in that order: 1 to 10 µM and 4.2 µM.
For `COC(=O)[C@@H]1CC[C@@H]2C[C@H]1N2C(=O)Nc1ccc(C)c(-c2ccccn2)c1` (racemic) [Example 70, cis-methyl-6-((4-methyl-3-(pyridin-2-yl)phenyl)carbamoyl)-6-azabicyclo[3.1.1]heptane-2-carboxylate], in that order: 1 to 10 µM and 1.9 µM.
Regarding `Cc1ccc(NC(=O)[C@H]2C[C@@H]3C[C@@H]3N2c2ncccn2)cc1-c1ncc(F)cn1` [Example 269, (1S,3R,5S)-N-[3-(5-fluoropyrimidin-2-yl)-4-methylphenyl]-2-pyrimidin-2-yl-2-azabicyclo[3.1.0]hexane-3-carboxamide], the IC50 is over 10 µM under setting [1] and 47 µM under setting [2].
With `Cc1ccc(NC(=O)N2C3CCCC2C3)cc1-c1ccccn1` [Example 17, N-(4-methyl-3-(pyridin-2-yl)phenyl)-6-azabicyclo[3.1.1]heptane-6-carboxamide], the IC50 is 0.1 µM under setting [2] and 0.0001 to 1 µM under setting [3].
Regarding `Cc1ccc(NC(=O)[C@@H]2CC2(F)F)cc1-c1ccc(C#N)cn1` [Example 158, (1S)-N-[3-(5-cyanopyridin-2-yl)-4-methylphenyl]-2,2-difluorocyclopropane-1-carboxamide], the IC50 reads like this: under setting [1], over 10 µM; under setting [2], 37 µM.
For `Cc1ccc(NC(=O)CN2C(=O)COCc3ccccc32)cc1-c1ccccn1` [Example 144, N-(4-methyl-3-pyridin-2-ylphenyl)-2-(2-oxo-5H-4,1-benzoxazepin-1-yl)acetamide], in that order: 1 to 10 µM and 9.7 µM.
For `Cc1ccc(NC(=O)[C@@H]2C[C@@H]2c2ccccn2)cc1-c1cccnn1` [Example 291, (1R,2S)-N-(4-methyl-3-pyridazin-3-ylphenyl)-2-pyridin-2-ylcyclopropane-1-carboxamide], in that order: over 10 µM and 16 µM.
The molecule `Cc1ccc(NC(=O)C2CCC(=O)N2c2ccccn2)cc1-c1ncc(F)cn1` (racemic) [Example 278, N-[3-(5-fluoropyrimidin-2-yl)-4-methylphenyl]-5-oxo-1-pyridin-2-ylpyrrolidine-2-carboxamide] gave an IC50 under setting [1] of over 10 µM and an IC50 under setting [2] of 17 µM.
On to `CO[C@H]1C[C@@H]2C[C@H](C1)N2C(=O)Nc1ccc(C)c(-c2ccccn2)c1` [Example 45, trans-3-Methoxy-N-(4-methyl-3-(pyridin-2-yl)phenyl)-6-azabicyclo[3.1.1]heptane-6-carboxamide], for which the IC50 runs as follows: under setting [2], 0.5 µM; under setting [3], 0.0001 to 1 µM.
On to `Cc1ccnc(-c2cc(NC(=O)[C@@H]3CC3(F)F)ccc2C)c1` [Example 161, (1S)-2,2-difluoro-N-[4-methyl-3-(4-methylpyridin-2-yl)phenyl]cyclopropane-1-carboxamide], for which the IC50 under setting [1] lay within 1 to 10 µM and the IC50 under setting [2] stood at 3.5 µM.
Consider `Cc1ccc(NC(=O)C(C)C(F)(F)F)cc1-c1ncccn1` (racemic) [Example 169, 3,3,3-trifluoro-2-methyl-N-(4-methyl-3-pyrimidin-2-ylphenyl)propanamide], for which the IC50 is, setting by setting: under setting [1], over 10 µM; under setting [2], 21 µM.
For `CC[C@H]1C[C@@H]1C(=O)Nc1ccc(C)c(-c2ccccn2)c1` (single isomer, unassigned) [Example 107, trans-2-ethyl-N-(4-methyl-3-pyridin-2-ylphenyl)cyclopropane-1-carboxamide], in that order: over 10 µM and 18 µM.
As for `N#CCc1ccc(NC(=O)N2C3CCCC2C3)cc1-c1ccccn1` [Example 19, N-(4-(cyanomethyl)-3-(pyridin-2-yl)phenyl)-6-azabicyclo[3.1.1]heptane-6-carboxamide], the IC50 was 0.2 µM under setting [2] and 0.0001 to 1 µM under setting [3].
As to `Cc1ccc(NC(=O)[C@@H]2C[C@@H]3C[C@@H]3N2c2ncccn2)cc1-c1ncc(F)cn1` [Example 268, (1S,3S,5S)-N-[3-(5-fluoropyrimidin-2-yl)-4-methylphenyl]-2-pyrimidin-2-yl-2-azabicyclo[3.1.0]hexane-3-carboxamide], the concentration for half-maximal inhibition (IC50) by setting is: under setting [1], over 10 µM; under setting [2], 33 µM.
With `Cc1ccc(NC(=O)N2C3CCCC2C3)cc1-c1ncc(F)cc1F` [Example 248, N-[3-(3,5-difluoropyridin-2-yl)-4-methylphenyl]-6-azabicyclo[3.1.1]heptane-6-carboxamide], the IC50 is 0.2 µM under setting [2] and 0.0001 to 1 µM under setting [3].
The like results for `Cc1ccc(NC(=O)N2C3C[C@@H]2CC[C@@H]3C)cc1-c1ccccn1` (single isomer, unassigned) [Example 47, cis-2-methyl-N-(4-methyl-3-(pyridin-2-yl)phenyl)-6-azabicyclo[3.1.1]heptane-6-carboxamide] were, in that order, 0.06 µM and 0.0001 to 1 µM.
Consider `Cc1ccc(NC(=O)[C@H]2CC[C@@H](C3CC3)N2c2ccccn2)cc1-c1ncc(F)cn1` (racemic) [Example 273, cis-5-cyclopropyl-N-(3-(5-fluoropyrimidin-2-yl)-4-methylphenyl)-1-(pyridin-2-yl)pyrrolidine-2-carboxamide], for which the IC50 was 1 to 10 µM under setting [1] and 1.9 µM under setting [2].
The like results for `Cc1c(C#N)cc(NC(=O)N2C3CCCC2C3)cc1-c1ccccn1` [Example 83, N-(3-cyano-4-methyl-5-pyridin-2-ylphenyl)-6-azabicyclo[3.1.1]heptane-6-carboxamide] were, in that order, over 10 µM and 35 µM.
The like results for `O=C(Nc1ccc(C(F)(F)F)c(-c2ncc(F)cn2)c1)[C@H]1C[C@H]2C[C@H]2N1c1ccccn1` [Example 301, (1R,3R,5R)-N-(3-(5-fluoropyrimidin-2-yl)-4-(trifluoromethyl)phenyl)-2-(pyridin-2-yl)-2-azabicyclo[3.1.0]hexane-3-carboxamide] were, in that order, 1 to 10 µM and 2.1 µM.
The like results for `Cc1ccc(NC(=O)[C@@H]2CC2(F)F)cc1-c1ncccc1C` [Example 156, (1S)-2,2-difluoro-N-[4-methyl-3-(3-methylpyridin-2-yl)phenyl]cyclopropane-1-carboxamide] were, in that order, 1 to 10 µM and 2.5 µM.
Take `Cc1ccc(NC(=O)N2C3CCC2[C@H](C)C3)cc1-c1ncc(F)cn1` (single isomer, unassigned) [Example 197, trans-N-[3-(5-fluoropyrimidin-2-yl)-4-methylphenyl]-2-methyl-7-azabicyclo[2.2.1]heptane-7-carboxamide]: the IC50 by setting is: under setting [2], 0.4 µM; under setting [3], 0.0001 to 1 µM.

The record behind these values is US20250171462A1 (NICO Therapeutics, Inc., priority 2022, published 2025).
